# Literature values as cited in patent publication US11213557B2, “Lactobacillus plantarum CCFM1019, fermented foods thereof, and application thereof in preparation of medicine for promoting excretion of plasticizers and metabolites thereof from body” (priority 2018, dated 2022).
# [1] = human body, 24 h after DEHP enters the body
smiles,measurement,setting,value
"CCCCC(CC)COC(=O)c1ccccc1C(=O)OCC(CC)CCCC (centres unmarked) [DEHP, bis(2-ethylhexyl) phthalate]",Half-life,DEHP stored in adipose tissue,156 h
same,Absorption and distribution period,human body,4 to 8 h
same,Time within which most of the DEHP is completely metabolized,human body,≤ 24 h
same,DEHP converted into five secondary metabolites and excreted in urine,[1],about 67%
same,DEHP directly excreted in urine,[1],less than 10%
